Our source for the Activity, IC50 and EC50 values is ChEMBL document CHEMBL6115021, “Design of Benzyl-triazolopyrimidine-Based NADPH Oxidase Inhibitors Leads to the Discovery of a Potent Dual Covalent NOX2/MAOB Inhibitor” (J Med Chem, 2025).

In series [1] the test system is BV-2. As to the kind of experiment: Neuroprotective activity against LPS/IFN-gamma induced mouse BV-2 cells assessed as effect on cell viability at 10 uM incubated for 48 hrs by MTT assay. In kind it is functional, cell-based. (In general: Tetrazolium dyes change colour on reduction, which living cells bring about.)
For the next series, the target named is Albumin (Bos taurus, UniProt P02769). As to the kind of experiment: Binding affinity to bovine serum albumin 5 to 20 uM incubated for 30 mins by mass spectrometry analysis. In kind it is ADME. To be noted: cattle, isolated protein, 0.5 h, dose 5-20 µM.
Albumin, sequence (P02769 whole entry): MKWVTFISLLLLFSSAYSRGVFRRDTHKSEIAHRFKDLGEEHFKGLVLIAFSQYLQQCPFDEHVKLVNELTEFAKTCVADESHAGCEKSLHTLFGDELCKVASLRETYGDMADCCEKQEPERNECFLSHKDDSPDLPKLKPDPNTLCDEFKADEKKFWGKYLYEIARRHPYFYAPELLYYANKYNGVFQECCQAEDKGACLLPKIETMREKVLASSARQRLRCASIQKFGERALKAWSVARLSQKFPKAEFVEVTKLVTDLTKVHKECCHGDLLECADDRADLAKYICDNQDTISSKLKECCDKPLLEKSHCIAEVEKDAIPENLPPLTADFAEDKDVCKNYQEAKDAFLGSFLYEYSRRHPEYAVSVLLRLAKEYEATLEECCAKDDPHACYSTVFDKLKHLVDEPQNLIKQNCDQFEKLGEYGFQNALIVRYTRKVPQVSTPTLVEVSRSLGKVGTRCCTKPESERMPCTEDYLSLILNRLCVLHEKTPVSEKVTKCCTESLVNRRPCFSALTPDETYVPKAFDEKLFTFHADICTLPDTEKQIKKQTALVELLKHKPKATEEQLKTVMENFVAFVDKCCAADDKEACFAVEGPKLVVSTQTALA
Series [2] relates to BV-2. As to the kind of experiment: Neuroprotective activity against LPS/IFN-gamma induced mouse BV-2 cells assessed as reduction in ROS level by measuring change in fluorescence intensity at 10 uM incubated for 48 hrs by CellROX reagent based fluorescence analysis. It counts as functional, cell-based.
The target in a further series is T1, NADPH oxidase 4 (Homo sapiens, UniProt Q9NPH5).
T1 sequence (Q9NPH5 whole entry): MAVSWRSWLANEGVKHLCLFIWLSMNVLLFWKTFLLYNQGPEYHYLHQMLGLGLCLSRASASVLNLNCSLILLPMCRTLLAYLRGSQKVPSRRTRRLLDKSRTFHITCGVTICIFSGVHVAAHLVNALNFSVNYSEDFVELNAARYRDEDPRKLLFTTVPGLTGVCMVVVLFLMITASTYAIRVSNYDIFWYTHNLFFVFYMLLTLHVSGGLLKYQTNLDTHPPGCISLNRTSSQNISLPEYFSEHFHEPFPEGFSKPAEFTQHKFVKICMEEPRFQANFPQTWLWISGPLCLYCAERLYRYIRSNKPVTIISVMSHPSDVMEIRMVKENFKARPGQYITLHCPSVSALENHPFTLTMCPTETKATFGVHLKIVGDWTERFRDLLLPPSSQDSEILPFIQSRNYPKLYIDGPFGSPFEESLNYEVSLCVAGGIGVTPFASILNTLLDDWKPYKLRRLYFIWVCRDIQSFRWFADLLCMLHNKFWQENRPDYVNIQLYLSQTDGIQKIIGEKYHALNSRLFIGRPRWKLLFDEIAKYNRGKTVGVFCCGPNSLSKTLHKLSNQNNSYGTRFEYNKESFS
Nature of the series: Inhibition of human NOX4.

Series [3] has as its target T2, NADPH oxidase 2 (Homo sapiens, UniProt P04839).
T2 sequence (P04839 whole entry): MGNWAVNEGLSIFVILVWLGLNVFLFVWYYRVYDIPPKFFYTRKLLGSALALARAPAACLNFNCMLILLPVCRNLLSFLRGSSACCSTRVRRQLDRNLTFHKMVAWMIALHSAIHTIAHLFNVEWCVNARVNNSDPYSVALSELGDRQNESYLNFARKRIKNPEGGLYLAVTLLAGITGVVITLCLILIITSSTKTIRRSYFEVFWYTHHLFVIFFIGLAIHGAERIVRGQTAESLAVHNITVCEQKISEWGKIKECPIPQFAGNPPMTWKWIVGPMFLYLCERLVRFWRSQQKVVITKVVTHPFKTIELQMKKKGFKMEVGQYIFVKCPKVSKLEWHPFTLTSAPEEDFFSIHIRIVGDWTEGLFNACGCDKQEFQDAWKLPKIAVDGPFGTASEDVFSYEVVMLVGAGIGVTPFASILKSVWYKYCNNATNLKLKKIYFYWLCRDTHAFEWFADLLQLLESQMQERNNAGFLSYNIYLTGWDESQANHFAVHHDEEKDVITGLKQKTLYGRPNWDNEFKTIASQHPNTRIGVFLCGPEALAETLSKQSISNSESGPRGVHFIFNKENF
As to the kind of experiment: Inhibition of human NOX2.

Series [4] addresses T2, NADPH oxidase 2. Nature of the series: Inhibition of human NOX2 by cell based assay.
Another series has as its target T3, NADPH oxidase 1 (Homo sapiens, UniProt Q9Y5S8).
T3 sequence (Q9Y5S8 whole entry): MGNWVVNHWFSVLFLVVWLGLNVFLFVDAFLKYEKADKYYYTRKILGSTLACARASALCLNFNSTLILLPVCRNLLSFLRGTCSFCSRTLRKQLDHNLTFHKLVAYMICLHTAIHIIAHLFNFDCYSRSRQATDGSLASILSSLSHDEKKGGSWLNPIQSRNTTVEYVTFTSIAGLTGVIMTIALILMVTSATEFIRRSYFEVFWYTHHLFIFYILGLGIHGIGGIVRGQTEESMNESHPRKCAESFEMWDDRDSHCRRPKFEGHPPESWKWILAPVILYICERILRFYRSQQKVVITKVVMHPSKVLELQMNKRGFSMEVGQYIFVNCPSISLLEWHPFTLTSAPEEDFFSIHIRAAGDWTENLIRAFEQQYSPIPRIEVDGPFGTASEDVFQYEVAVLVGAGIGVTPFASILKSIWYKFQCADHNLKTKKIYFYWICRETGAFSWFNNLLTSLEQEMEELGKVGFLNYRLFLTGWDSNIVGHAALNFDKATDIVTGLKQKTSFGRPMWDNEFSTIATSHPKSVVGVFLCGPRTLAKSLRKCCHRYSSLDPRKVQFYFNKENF
Nature of the series: Inhibition of human NOX1.

The next series has as its target T4, NADPH oxidase 5 (Homo sapiens, UniProt Q96PH1).
T4 sequence (Q96PH1 whole entry): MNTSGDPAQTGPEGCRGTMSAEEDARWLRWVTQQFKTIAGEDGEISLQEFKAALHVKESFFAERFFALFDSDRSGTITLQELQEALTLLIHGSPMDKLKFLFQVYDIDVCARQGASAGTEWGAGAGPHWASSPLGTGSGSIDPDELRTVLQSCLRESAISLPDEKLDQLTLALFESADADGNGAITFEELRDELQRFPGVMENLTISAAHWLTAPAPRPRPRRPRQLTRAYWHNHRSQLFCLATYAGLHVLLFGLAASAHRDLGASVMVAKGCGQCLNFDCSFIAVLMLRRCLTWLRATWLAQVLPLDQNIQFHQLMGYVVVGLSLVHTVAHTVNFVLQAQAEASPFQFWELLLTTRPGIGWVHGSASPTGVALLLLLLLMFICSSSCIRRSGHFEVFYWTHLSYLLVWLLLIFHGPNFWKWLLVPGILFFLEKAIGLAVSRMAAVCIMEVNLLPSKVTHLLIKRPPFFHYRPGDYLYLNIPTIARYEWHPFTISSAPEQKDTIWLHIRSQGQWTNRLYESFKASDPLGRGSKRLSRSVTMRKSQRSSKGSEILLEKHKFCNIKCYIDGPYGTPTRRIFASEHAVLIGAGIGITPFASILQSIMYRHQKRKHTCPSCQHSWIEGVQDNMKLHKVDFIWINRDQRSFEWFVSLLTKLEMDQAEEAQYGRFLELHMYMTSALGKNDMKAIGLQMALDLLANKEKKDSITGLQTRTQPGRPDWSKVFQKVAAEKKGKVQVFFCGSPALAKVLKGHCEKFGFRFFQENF
As to the kind of experiment: Inhibition of human NOX5.

Activity calls are given as the source filed them. The rule behind the calls is not given here.

On to `C#CCN(C)Cc1ccc(Cn2nnc3c(Sc4nc5ccccc5o4)ncnc32)cc1`, for which the result with BV-2 [1] and in the series with BV-2 [2] was Active. Further, the Activity result at Albumin is “Not_active”.

In the case of `C#CCN[C@@H]1CCc2ccccc21`, in the series on BV-2 [1], the result was Active.

For orientation: IC50 means the concentration needed to halve the response being measured. A higher IC50 goes with lower potency. As to `Clc1ncnc2c1nnn2Cc1ccccc1`, the results for the IC50 against NADPH oxidase 4 and on NADPH oxidase 2 [3] were 5.7 µM and 5.1 µM, respectively.

Consider `c1ccc(Cn2nnc3c(Sc4nc5ccccc5o4)ncnc32)cc1`, for which the result with BV-2 [2] was Active.

In general, EC50 refers to the concentration that produces a half-maximal response. Low values mean a more potent agent, high ones a less potent agent. With `c1ccc(-c2cc(NC3CCNCC3)nc3ccccc23)cc1`, the half-maximal effective concentration (EC50) at NADPH oxidase 2 [4] came out at 5.7 µM. The IC50 at NADPH oxidase 1 was determined as 71.2 µM; against NADPH oxidase 4 it was 81.2 µM; at NADPH oxidase 2 [3] it was 7.7 µM; against NADPH oxidase 5 it was 28 µM.

With `O=C1c2ccccc2-c2cc(N3CCC4(CC3)OCCO4)nc3cccc1c23`, it took 2.1 µM to reach a half-maximal effect at NADPH oxidase 2 [4] (EC50). Moreover, the IC50 on NADPH oxidase 4 was found to be 5.7 µM; on NADPH oxidase 2 [3], 5.1 µM.
